This note sets out measurements from ChEMBL document CHEMBL6120946, “From Hit to Lead: Discovery of First-In-Class Furanone Glycoside D228 Derived from Chimonanthus salicifolius for the Treatment of Inflammatory Bowel Disease” (J Med Chem, 2024).

The source made the active and inactive calls. No cut-off for these calls is given here.

Broadly, the IC50 is the midpoint of a concentration-inhibition curve. For orientation: CC50 means the concentration that lowers cell viability or growth by half. A lower CC50 goes with greater toxicity to the cells.

Series [1] concerns Mus musculus. As to the kind of experiment: Antiinflammatory activity in male C57BL/6 mouse model of inflammatory bowel disease assessed as recovery of DSS-induced body weight loss at 40 mg/kg/day, po via gavage measured after 14 days relative to control. Type of series: functional. Conditions: time 14 day.
Series [2] deals with Mus musculus. Description: Antiinflammatory activity in DSS-induced male C57BL/6 mouse model of inflammatory bowel disease assessed as increase in colon length at 250 mg/kg/day, po via gavage measured upto 14 days relative to control. Type of series: functional. Conditions: time <= 14 day.
The subject of series [3] is Mus musculus. As to the kind of experiment: Antiinflammatory activity in DSS-induced male C57BL/6 mouse model of inflammatory bowel disease assessed as restoration of colon length at 40 mg/kg/day, po via gavage measured after 14 days relative to control. Type of series: functional. Conditions: time 14 day.
Series [4] in a line: Immunosuppressive activity in mouse T-lymphocyte assessed as reduction in concanavalin A-induced cell proliferation incubated for 48 hrs. It is filed as functional, cell-based.
For series [5], the system named is B-cell line. Description: Immunosuppressive activity in mouse B-lymphocyte assessed as reduction in LPS-induced cell proliferation incubated for 48 hrs. It is filed as functional, cell-based.
Series [6] concerns Mus musculus. As to the kind of experiment: Antiinflammatory activity in DSS-induced male C57BL/6 mouse model of inflammatory bowel disease assessed as recovery from body weight loss at 40 mg/kg/day, po measured after 7 days. It is filed as functional, organism-based. Conditions: time 7.0 day.
A short description of series [7]: Cytotoxicity against mouse Splenocyte by MTT assay. Type of series: toxicity, cell-based. Conditions: splenocytes.
In series [8] the test system is Mus musculus. Description: Antiinflammatory activity in DSS-induced male C57BL/6 mouse model of inflammatory bowel disease assessed as recovery from body weight loss at 40 mg/kg/day, po measured after 7 days relative to control. Type of series: functional. Conditions: time 7 day.
Series [9] concerns Mus musculus. Description: Antiinflammatory activity in DSS-induced male C57BL/6 mouse model of inflammatory bowel disease assessed as recovery in colon length at 40 mg/kg/day, po measured after 7 days relative to control. Type of series: functional. Conditions: time 7 day.
The nature of series [10]: Selectivity ratio of CC50 for cytotoxicity against mouse Splenocyte to IC50 for immunosuppressive activity in mouse T-lymphocyte. It is filed as toxicity. Conditions: splenocytes (CC50) and T-lymphocytes (IC50).
Series [11] can be described thus: Selectivity ratio of CC50 for cytotoxicity against mouse Splenocyte to IC50 for immunosuppressive activity in mouse B-lymphocyte. Conditions: splenocytes (CC50) and B-lymphocytes (IC50). Type of series: toxicity.
Series [12] relates to Mus musculus. Description: Antiinflammatory activity in DSS-induced male C57BL/6 mouse model of inflammatory bowel disease assessed as increase in colon length at 7.5 mg/kg/day, po via gavage measured upto 14 days relative to control. Type of series: functional. Conditions: time <= 14 day.
For series [13], the system named is Mus musculus. As to the kind of experiment: Antiinflammatory activity in DSS-induced male C57BL/6 mouse model of inflammatory bowel disease assessed as reduction in weight loss at 7.5 to 15 mg/kg/day, po via gavage measured upto 14 days. Type of series: functional, organism-based. Conditions: dose 7.5-15 mg/kg/day, time <= 14.0 day.
Series [14] deals with Mus musculus. As to the kind of experiment: Antiinflammatory activity in DSS-induced male C57BL/6 mouse model of inflammatory bowel disease assessed as reduction in diarrhea at 7.5 to 15 mg/kg/day, po via gavage measured upto 14 days. It is filed as functional, organism-based. Conditions: dose 7.5-15 mg/kg/day, time <= 14.0 day.
Series [15] relates to Mus musculus. Description: Antiinflammatory activity in DSS-induced male C57BL/6 mouse model of inflammatory bowel disease assessed as increase in colon length at 15 mg/kg/day, po via gavage measured upto 14 days relative to control. Conditions: time <= 14 day. It is filed as functional.
For series [16], the system named is Mus musculus. As to the kind of experiment: Antiinflammatory activity in DSS-induced male C57BL/6 mouse model of inflammatory bowel disease assessed as reduction of bloody stool at 7.5 to 15 mg/kg/day, po via gavage measured upto 14 days. Conditions: dose 7.5-15 mg/kg/day, time <= 14.0 day. Type of series: functional, organism-based.

As for `O=C(O)c1cc(/N=N/c2ccc(S(=O)(=O)Nc3ccccn3)cc2)ccc1O` [SULFASALAZINE], the Activity is on record as 24% in series [1], 86.7% in series [2] and 9.5% in series [3].

Take `CCOC(=O)OC[C@H]1O[C@@H](OC2=C(C)OC(=C(C)C)C2=O)[C@H](O)[C@@H](O)[C@@H]1O`: the IC50 in series [4] and in series [5] was over 100 µM each time. The result in series [6] was Active. Moreover, the CC50 in [7] was found to be 182 µM. Moreover, the Activity in series [8] came to 47.6%; in [9], 13.3%.

With `CC(=O)OC[C@H]1O[C@@H](OC2=C(C)OC(=C3CCCCC3)C2=O)[C@H](OC(C)=O)[C@@H](OC(C)=O)[C@@H]1OC(C)=O`, the values for the selectivity ratio in series [10] and in series [11] were 0.92 and 0.79, respectively. Also, the IC50 in series [4] was 4720 µM; in [5] it was 54 µM. Moreover, the result in series [6] was Active. Further, the CC50 in series [7] was determined as 35.6 µM. Moreover, the Activity was found to be 30.7% in series [8] and 54.8% in [9].

For `CC1=C(O)C(=O)C(=C2CCOCC2)O1`, the IC50 in series [4] and in [5] was over 100 µM in each case. Half-maximal cytotoxicity in series [7] (CC50) was put at 232 µM.

With `CC1=C(O)C(=O)C(=C2CCNCC2)O1`, the IC50 in [4] and in series [5] was over 100 µM each time. This molecule registered a CC50 in series [7] of 205 µM.

For `CC(=O)OC[C@H]1O[C@@H](OC2=C(C)OC(=C3CCNCC3)C2=O)[C@H](OC(C)=O)[C@@H](OC(C)=O)[C@@H]1OC(C)=O`, the selectivity ratio in series [10] was found to be 0.8; in series [11], 0.37. The IC50 stood at 29.1 µM in series [4] and 41.1 µM in [5]. The result in series [6] was Active. Besides, half-maximal cytotoxicity in [7] (CC50) was put at 15.5 µM. In addition, the Activity turned out to be 28% in series [8] and 52.9% in [9].

Consider `C/C=C/C[C@@H](C)[C@@H](O)[C@H]1C(=O)N[C@@H](CC)C(=O)N(C)CC(=O)N(C)[C@@H](CC(C)C)C(=O)N[C@@H](C(C)C)C(=O)N(C)[C@@H](CC(C)C)C(=O)N[C@@H](C)C(=O)N[C@H](C)C(=O)N(C)[C@@H](CC(C)C)C(=O)N(C)[C@@H](CC(C)C)C(=O)N(C)[C@@H](C(C)C)C(=O)N1C` [CYCLOSPORINE], for which, in [5], the IC50 worked out at 0.46 µM.

On to `CC(=O)OC[C@H]1O[C@@H](OC2=C(C)OC(=C(C)C)C2=O)[C@H](OC(C)=O)[C@@H](OC(C)=O)[C@H]1OC(C)=O`, for which the selectivity ratio in series [10] was determined as 1.06. In addition, the Activity came to 44.8% in series [1] and 25.4% in series [3]. In addition, the IC50 in series [4] is 201 µM; in series [5], over 100 µM. In addition, the midpoint of cytotoxicity in [7], the CC50, lay at 183 µM.

In the case of `CC(C)=C1OC(C)=C(O[C@@H]2O[C@H](COC(=O)C(C)(C)C)[C@@H](OC(=O)C(C)(C)C)[C@H](OC(=O)C(C)(C)C)[C@H]2OC(=O)C(C)(C)C)C1=O`, the values for the Activity in series [1] and in series [3] were 41.6% and 3.2%, respectively. Also, the IC50 in series [4] and in series [5] was over 100 µM in each case. The molecule also showed a CC50 in [7] of over 200 µM.

Take `CC(=O)OC[C@H]1O[C@@H](OC2=C(C)OC(=C3CCN(C(C)=O)CC3)C2=O)[C@H](OC(C)=O)[C@@H](OC(C)=O)[C@@H]1OC(C)=O`: the figures for the selectivity ratio in [10] and in series [11] were 1.23 and 1.74, respectively. In addition, the IC50 is 48.3 µM in series [4] and 24.9 µM in series [5]. In addition, in series [6], the outcome was Active. The molecule also had a CC50 in series [7] of 38.7 µM. In addition, the Activity in series [8] is 13.9%; in series [9], 26.7%.

As for `CC1=C(O)C(=O)C(=C2CCCCC2)O1`, the IC50 in series [4] and in series [5] was over 100 µM throughout.

For the molecule `CC1=C(O)C(=O)C(=C2CCCC2)O1`, the values for the Activity in [12] and in [15] were 99.2% and 98.4%, respectively. For the same molecule, the IC50 in [4] and in [5] was over 100 µM in each case. The result in series [13], in [14] and in [16] was Active. The same molecule showed a cytotoxic concentration (CC50) in [7] of 248 µM.

Regarding `CC(=O)OC[C@H]1O[C@@H](OC2=C(C)OC(=C3CCOCC3)C2=O)[C@H](OC(C)=O)[C@@H](OC(C)=O)[C@@H]1OC(C)=O`, the selectivity ratio in series [10] was determined as 1.87; in series [11], 3.11. For the same molecule, the IC50 in series [4] worked out at 43.6 µM; in [5] it was 26.4 µM. Also, the outcome in series [6] was Active. Half-maximal cytotoxicity in series [7] (CC50) was put at 71.9 µM. The Activity was 26.3% in [8] and 30.5% in [9].

For `CC(=O)OC[C@H]1O[C@@H](OC2=C(C)OC(=C3CCCC3)C2=O)[C@H](OC(C)=O)[C@@H](OC(C)=O)[C@@H]1OC(C)=O`, the selectivity ratio in series [10] was 1.83; in series [11], 2.73. Besides, the IC50 turned out to be 23.4 µM in series [4] and 16.3 µM in [5]. Moreover, in [6], the outcome was Active. In [7], this molecule displayed a CC50 of 40 µM. For the same molecule, the Activity in series [8] stood at 62.5%; in series [9] it was 45.2%.

`COC(=O)[C@H]1O[C@@H](OC2=C(C)OC(=C(C)C)C2=O)[C@H](OC(C)=O)[C@@H](OC(C)=O)[C@@H]1OC(C)=O`: the Activity is 44.8% in series [1] and 9.5% in series [3]. For the same molecule, the IC50 in [4] and in series [5] was over 100 µM each time. Also, in [7], the cytotoxic concentration (CC50) came out at 212 µM.
